Laboratory results taken from ChEMBL document CHEMBL3112576, “Synthesis and biological evaluation of a new series of ebselen derivatives as glutathione peroxidase (GPx) mimics and cholinesterase inhibitors against Alzheimer's disease” (Bioorg Med Chem, 2014).
Active and inactive are the calls of the source. The calls are words filed in the database; no cut-off is given here.

Assays:
[1] = biological target: Acetylcholinesterase (Homo sapiens, UniProt P22303); assay: Inhibition of human erythrocyte acetylcholinesterase using acetylthiocholine chloride as substrate preincubated for 15 mins followed by substrate addition by Ellman's method
Sequence of Acetylcholinesterase (Homo sapiens, UniProt P22303) (P22303 whole entry): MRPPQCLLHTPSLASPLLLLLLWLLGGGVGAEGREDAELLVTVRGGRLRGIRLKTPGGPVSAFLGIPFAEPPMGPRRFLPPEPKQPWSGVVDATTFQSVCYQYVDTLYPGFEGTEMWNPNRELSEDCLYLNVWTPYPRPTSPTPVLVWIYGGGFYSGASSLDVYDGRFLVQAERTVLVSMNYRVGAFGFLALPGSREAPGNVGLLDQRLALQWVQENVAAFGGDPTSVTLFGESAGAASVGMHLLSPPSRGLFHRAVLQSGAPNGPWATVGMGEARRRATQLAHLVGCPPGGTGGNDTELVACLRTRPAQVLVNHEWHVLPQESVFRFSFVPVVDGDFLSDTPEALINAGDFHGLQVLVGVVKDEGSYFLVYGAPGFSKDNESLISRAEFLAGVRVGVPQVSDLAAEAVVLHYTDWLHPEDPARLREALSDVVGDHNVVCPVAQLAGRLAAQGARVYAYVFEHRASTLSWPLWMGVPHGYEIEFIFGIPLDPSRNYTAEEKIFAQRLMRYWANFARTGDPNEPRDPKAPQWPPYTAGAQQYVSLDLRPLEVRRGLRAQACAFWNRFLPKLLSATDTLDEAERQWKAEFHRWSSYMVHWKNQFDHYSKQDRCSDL

[2] = biological target: Cholinesterase (Equus caballus, UniProt P81908)
Sequence of Cholinesterase (P81908 whole entry): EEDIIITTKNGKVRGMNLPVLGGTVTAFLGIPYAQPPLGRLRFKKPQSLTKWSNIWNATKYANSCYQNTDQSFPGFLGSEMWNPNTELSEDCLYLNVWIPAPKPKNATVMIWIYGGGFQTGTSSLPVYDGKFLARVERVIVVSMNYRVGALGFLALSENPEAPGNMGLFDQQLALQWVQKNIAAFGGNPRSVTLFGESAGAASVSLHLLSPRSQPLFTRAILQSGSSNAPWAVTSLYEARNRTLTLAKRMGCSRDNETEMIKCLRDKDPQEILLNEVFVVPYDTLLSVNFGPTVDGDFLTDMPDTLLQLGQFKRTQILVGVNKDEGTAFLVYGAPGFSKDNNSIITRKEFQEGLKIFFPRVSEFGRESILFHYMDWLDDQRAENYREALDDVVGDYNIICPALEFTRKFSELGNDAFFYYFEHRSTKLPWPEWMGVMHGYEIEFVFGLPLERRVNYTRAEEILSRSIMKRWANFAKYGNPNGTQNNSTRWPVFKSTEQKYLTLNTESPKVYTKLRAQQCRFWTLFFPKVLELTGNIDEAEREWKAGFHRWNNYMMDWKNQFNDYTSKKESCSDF
Description: Inhibition of equine serum butyrylcholinesterase using butyrylthiocholine chloride as substrate preincubated for 15 mins followed by substrate addition by Ellman's method

[3] = biological target: Acetylcholinesterase (Electrophorus electricus, UniProt O42275)
Sequence of Acetylcholinesterase (Electrophorus electricus, UniProt O42275) (O42275 whole entry): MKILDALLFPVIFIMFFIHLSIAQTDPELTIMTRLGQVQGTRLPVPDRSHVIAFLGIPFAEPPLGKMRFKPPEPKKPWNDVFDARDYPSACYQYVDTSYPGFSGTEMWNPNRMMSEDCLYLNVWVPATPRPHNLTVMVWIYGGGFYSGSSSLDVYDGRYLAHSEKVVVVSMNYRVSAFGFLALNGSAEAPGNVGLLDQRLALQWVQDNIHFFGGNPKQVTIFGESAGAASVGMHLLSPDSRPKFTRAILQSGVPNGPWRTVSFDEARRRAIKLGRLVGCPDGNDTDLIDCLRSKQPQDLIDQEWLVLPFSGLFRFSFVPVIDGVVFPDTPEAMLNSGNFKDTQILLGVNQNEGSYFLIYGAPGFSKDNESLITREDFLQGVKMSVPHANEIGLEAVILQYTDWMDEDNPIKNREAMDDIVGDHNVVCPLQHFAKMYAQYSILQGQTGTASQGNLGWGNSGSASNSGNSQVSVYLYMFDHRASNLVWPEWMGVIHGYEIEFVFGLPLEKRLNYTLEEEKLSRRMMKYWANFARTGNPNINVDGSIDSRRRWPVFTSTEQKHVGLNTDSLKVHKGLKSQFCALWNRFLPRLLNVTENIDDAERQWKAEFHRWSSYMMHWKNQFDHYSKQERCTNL
Description: Inhibition of electric eel acetylcholinesterase using acetylthiocholine chloride as substrate preincubated for 15 mins followed by substrate addition by Ellman's method

[4] = GPx-like activity of the compound using 1 mM GSH/H2O2 as substrate assessed as GSH-mediated H2O2 reduction at 80 uM at pH 7.5 measured for 10 secs by spectrophotometric analysis; assay type: physicochemical; conditions: pH 7.5, 10 s
[5] = GPx-like activity of the compound using GSH/1 mM H2O2 as substrate assessed as GSH-mediated H2O2 reduction at 80 uM at pH 7.5 measured for 10 secs by spectrophotometric analysis; assay type: physicochemical; conditions: pH 7.5, 10 s
[6] = GPx-like activity of the compound using GSH/1.2 mM H2O2 as substrate assessed as GSH-mediated H2O2 reduction at 80 uM at pH 7.5 measured for 10 secs by spectrophotometric analysis; assay type: physicochemical; conditions: pH 7.5, 10 s
[7] = GPx-like activity of the compound using variable GSH/H2O2 as substrate by Lineweaver-burk plot analysis; assay type: physicochemical
[8] = GPx-like activity of the compound using GSH/variable H2O2 as substrate by Lineweaver-burk plot analysis; assay type: physicochemical
[9] = GPx-like activity of the compound using GSH/variable H2O2 as substrate assessed as catalytic efficiency by Lineweaver-burk plot analysis; assay type: physicochemical
[10] = GPx-like activity of the compound using variable GSH/H2O2 as substrate assessed as catalytic efficiency by Lineweaver-burk plot analysis; assay type: physicochemical
[11] = GPx-like activity of the compound using 4 mM GSH/H2O2 as substrate assessed as GSH-mediated H2O2 reduction at 80 uM at pH 7.5 measured for 10 secs by spectrophotometric analysis; assay type: physicochemical; conditions: pH 7.5, 10 s
[12] = GPx-like activity of the compound using GSH/0.8 mM H2O2 as substrate assessed as GSH-mediated H2O2 reduction at 80 uM at pH 7.5 measured for 10 secs by spectrophotometric analysis; assay type: physicochemical; conditions: pH 7.5, 10 s
[13] = GPx-like activity of the compound using 2 mM GSH/H2O2 as substrate assessed as GSH-mediated H2O2 reduction at 80 uM at pH 7.5 measured for 10 secs by spectrophotometric analysis; assay type: physicochemical; conditions: pH 7.5, 10 s
[14] = GPx-like activity of the compound using GSH/1.6 mM H2O2 as substrate assessed as GSH-mediated H2O2 reduction at 80 uM at pH 7.5 measured for 10 secs by spectrophotometric analysis; assay type: physicochemical; conditions: pH 7.5, 10 s
[15] = GPx-like activity of the compound using GSH/1.4 mM H2O2 as substrate assessed as GSH-mediated H2O2 reduction at 80 uM at pH 7.5 measured for 10 secs by spectrophotometric analysis; assay type: physicochemical; conditions: pH 7.5, 10 s
[16] = GPx-like activity of the compound using 3 mM GSH/H2O2 as substrate assessed as GSH-mediated H2O2 reduction at 80 uM at pH 7.5 measured for 10 secs by spectrophotometric analysis; assay type: physicochemical; conditions: pH 7.5, 10 s
[17] = GPx-like activity of the compound using 1.5 mM GSH/H2O2 as substrate assessed as GSH-mediated H2O2 reduction at 80 uM at pH 7.5 measured for 10 secs by spectrophotometric analysis; assay type: physicochemical; conditions: pH 7.5, 10 s
[18] = Antioxidant activity assessed as H2O2 scavenging activity at 50 to 200 uM after 10 hrs by ferrous ion oxidation-xylenol orange assay; assay type: functional

SMILES	IC50 [1]	IC50 [2]	IC50 [3]	Activity [4]	Activity [5]	Activity [6]	Kcat [7]	Vmax [7]	Kcat [8]	Vmax [8]	Activity [9]	Activity [10]	Activity [11]	Activity [12]	Activity [13]	Activity [14]	Activity [15]	Activity [16]	Activity [17]	Activity [18]
O=c1c2ccccc2[se]n1-c1ccc(CCN2CCCC2)cc1	> 15 µM	6.38 µM	> 15 µM																	
O=c1c2ccccc2[se]n1-c1ccccc1 [EBSELEN]	> 15 µM	10.6 µM	> 15 µM	88.35 µM/min	105.89 µM/min	107.82 µM/min	0.0642 s⁻¹	307.69 µM/min	0.0393 s⁻¹	188.68 µM/min	2.85 mM⁻¹ min⁻¹	1.64 mM⁻¹ min⁻¹	183.19 µM/min	92.43 µM/min	152.18 µM/min	125.93 µM/min	119.01 µM/min	166.44 µM/min	130.27 µM/min	Active
COc1cc2[se]n(-c3ccc(OCCN4CCCCC4)cc3)c(=O)c2cc1OC	0.45 µM	9.69 µM	0.46 µM	77.43 µM/min	76.93 µM/min	98.87 µM/min	0.0577 s⁻¹	276.24 µM/min	0.066 s⁻¹	316.46 µM/min	0.74 mM⁻¹ min⁻¹	1.4 mM⁻¹ min⁻¹	164.86 µM/min	53.36 µM/min	126.72 µM/min	122.64 µM/min	109.83 µM/min	150.13 µM/min	110.89 µM/min	Active
COc1cc2[se]n(-c3ccc(CN4CCCC4)cc3)c(=O)c2cc1OC	4.31 µM	13.4 µM	1.06 µM																	
O=c1c2ccccc2[se]n1-c1ccc(OCCN2CCCCC2)cc1	10.9 µM	1.97 µM	5.66 µM																	
COc1cc2[se]n(-c3ccc(CCN4CCCCC4)cc3)c(=O)c2cc1OC	10.5 µM	> 15 µM	3.87 µM																	
COc1cc2[se]n(-c3ccc(CN(C)Cc4ccccc4)cc3)c(=O)c2cc1OC	> 15 µM	3.62 µM	1.71 µM																	
COc1cc2[se]n(-c3ccc(OCCCCN4CCCCC4)cc3)c(=O)c2cc1OC	3.41 µM	5.72 µM	4.32 µM																	
COc1cc2[se]n(-c3ccc(CN4CCCCC4)cc3)c(=O)c2cc1OC	1.44 µM	> 15 µM	0.76 µM	88.35 µM/min	109.44 µM/min	121.72 µM/min	0.0643 s⁻¹	308.64 µM/min	0.1812 s⁻¹	869.57 µM/min	1.45 mM⁻¹ min⁻¹	1.63 mM⁻¹ min⁻¹	185.66 µM/min	81.43 µM/min	147.84 µM/min	150.53 µM/min	132.29 µM/min	166.44 µM/min	130.27 µM/min	Active
COc1cc2[se]n(-c3ccc(OCCCN4CCCCC4)cc3)c(=O)c2cc1OC	5.15 µM	5.8 µM	4.5 µM																	
COc1cc2[se]n(-c3ccc(CCN4CCCC4)cc3)c(=O)c2cc1OC	13.9 µM	> 15 µM	4.32 µM																	
O=c1c2ccccc2[se]n1-c1ccc(CN2CCCCC2)cc1	10.8 µM	5.56 µM	2.36 µM																	
